According to US5892045A, “4-aryl-3-hydroxyquinolin-2-one derivatives as ion channel modulators” (priority 1997, dated 1999):

Columns and labels:
[1] = test system: cloned mammalian (mSlo or hSlo) BK channels expressed in Xenopus oocytes; assay: Increase of cloned BK-mediated outward current, two-electrode voltage clamp in Xenopus oocytes (IBTX-sensitive current); assay type: cell-based; conditions: at 20 μM expressed as percent of controls; at least 5 oocytes
Experimental: The ability of compounds described in the present invention to open BK channels and increase whole-cell outward (K^+) BK-mediated currents was assessed under voltage-clamp conditions by determining their ability to increase cloned mammalian (mSlo or hSlo) BK-mediated outward current heterologously expressed in Xenopus oocytes [Butler, A., et al., Science, 261: 221-224 (1993); and Dworetzky, S. I., et al., Mol. Brain Res., 27: 189-193 (1994)]. The two BK constructs employed represent nearly structurally identical homologous proteins, and have proven to be pharmacologically identical in our tests. […] The relative contribution of BK channels current to total outward current was determined by subtraction of the current remaining in the presence of IBTX (non-BK current) from the current profiles obtained in all other experimental conditions (control, drug, and wash). […] All compounds were tested in at least 5 oocytes and are reported at the single concentration of 20 μM; the effect of the selected compounds of Formula I on BK current was expressed as the percent of control IBTX-sensitive current and is listed in Table I. Recordings were accomplished using standard two-electrode voltage clamp techniques [Stuhmer, W., et al., Methods in Enzymology, Vol. 207: 319-339 (1992)]; voltage-clamp protocols consisted of 500-750 ms duration step depolarization from a holding potential of -60 mV to +140 mV in 20 mV steps. The experimental media (modified Barth's solution) consisted of (in mM): NaCl (88), NaHCO3 (2.4), KCl (1.0), HEPES (10), MgSO4 (0.82), Ca(NO3)2 (0.33), CaCl2 (0.41); pH 7.5.

[2] = test system: Ca^2+ -activated potassium channels; conditions: outside-out patches, myelinated nerve fibers; Koh 1994; cited from earlier work
BK channel [3] = conditions: very limited electrophysiological experiments; Laurent 1993; cited from earlier work
BK channel [4] = conditions: Galvez 1990; cited from earlier work

O=c1[nH]c2cc(Cl)cc(Cl)c2c(-c2cc(Cl)ccc2O)c1O [Example 2, 5,7-Dichloro-4-(5-chloro-2-hydroxyphenyl)-3-hydroxy-2(1H)-quinolinone]
BK Current (percent of control IBTX-sensitive current) [1]: ++ (>150%)

COc1ccc(Br)cc1-c1c(O)c(=O)[nH]c2ccc([N+](=O)[O-])cc12 [Example 3]
BK Current (percent of control IBTX-sensitive current) [1]: + (100-150%)

COc1ccc(Br)cc1-c1c(O)c(=O)[nH]c2cc(Cl)cc(Cl)c12 [Example 4]
BK Current (percent of control IBTX-sensitive current) [1]: ++ (>150%)

COc1ccc(Cl)cc1-c1c(O)c(=O)[nH]c2cc(Cl)ccc12 [Example 5]
BK Current (percent of control IBTX-sensitive current) [1]: + (100-150%)

O=c1[nH]c2ccccc2c(-c2cc(Br)ccc2O)c1O [Example 6]
BK Current (percent of control IBTX-sensitive current) [1]: + (100-150%)

Cn1c(=O)c(O)c(-c2cc(Br)ccc2O)c2ccccc21 [Example 7]
BK Current (percent of control IBTX-sensitive current) [1]: + (100-150%)

O=c1[nH]c2ccccc2c(-c2cc(Cl)ccc2O)c1O [Example 8]
BK Current (percent of control IBTX-sensitive current) [1]: + (100-150%)

O=c1[nH]c2ccc([N+](=O)[O-])cc2c(-c2cc(Br)ccc2O)c1O [Example 9]
BK Current (percent of control IBTX-sensitive current) [1]: ++ (>150%)

O=c1[nH]c2cc(C(F)(F)F)ccc2c(-c2cc(Cl)ccc2O)c1O [Example 10]
BK Current (percent of control IBTX-sensitive current) [1]: ++ (>150%)

O=c1[nH]c2cc(C(F)(F)F)ccc2c(-c2cc(Br)ccc2O)c1O [Example 11]
BK Current (percent of control IBTX-sensitive current) [1]: ++ (>150%)

O=c1[nH]c2cc(Cl)cc(Cl)c2c(-c2cc(Br)ccc2O)c1O [Example 12]
BK Current (percent of control IBTX-sensitive current) [1]: ++ (>150%)

O=c1[nH]c2ccc(Cl)cc2c(-c2cc(Cl)ccc2O)c1O [Example 13]
BK Current (percent of control IBTX-sensitive current) [1]: + (100-150%)

O=c1[nH]c2cccc(Cl)c2c(-c2cc(Cl)ccc2O)c1O [Example 14]
BK Current (percent of control IBTX-sensitive current) [1]: + (100-150%)

O=c1[nH]c2cc(Cl)ccc2c(-c2cc(Cl)ccc2O)c1O [Example 15]
BK Current (percent of control IBTX-sensitive current) [1]: ++ (>150%)

O=c1[nH]c2ccc(C(F)(F)F)cc2c(-c2cc(Cl)ccc2O)c1O [Example 16]
BK Current (percent of control IBTX-sensitive current) [1]: ++ (>150%)

O=c1[nH]c2ccc(C(F)(F)F)cc2c(-c2cc(Br)ccc2O)c1O [Example 17]
BK Current (percent of control IBTX-sensitive current) [1]: ++ (>150%)

Cn1c(=O)c(O)c(-c2cc(Cl)ccc2O)c2c(Cl)cc(Cl)cc21 [Example 18]
BK Current (percent of control IBTX-sensitive current) [1]: ++ (>150%)

O=c1[nH]c2ccc(Br)cc2c(-c2cc(Br)ccc2O)c1O [Example 19]
BK Current (percent of control IBTX-sensitive current) [1]: ++ (>150%)

O=c1[nH]c2ccc(Br)cc2c(-c2cc(Cl)ccc2O)c1O [Example 20]
BK Current (percent of control IBTX-sensitive current) [1]: ++ (>150%)

O=c1[nH]c2c(Cl)cccc2c(-c2cc(Cl)ccc2O)c1O [Example 21]
BK Current (percent of control IBTX-sensitive current) [1]: + (100-150%)

O=C(CCc1ccc(O)cc1)c1c(O)cc(O)cc1O [Phloretin]
open probability of Ca^2+ -activated potassium channels [2]: increase the open probability

CNc1nc(Br)cn2cc(C#N)nc12 [SCA-40, 6-Bromo-8-(methylamino) imidazo[1,2-a]pyrazine-2-carbonitrile]
BK channel opening activity (BK channel [3]): BK channel opener

iberiotoxin: specific and potent BK channel-blocking toxin iberiotoxin (IBTX) (QFTDVDCSVSKECWSVCKDLFGVDRGKCMGKKCRCYQ; UniProt P24663 1-37, looked up)
BK channel block (BK channel [4]): specific and potent BK channel-blocking toxin
